In series [1] the test system is K562-S human leukemia cell line. As to the kind of experiment: Preliminary experiments: concentration of toxicant decreasing cell survival by 50%. In kind it is cell-based. The note with it: K562 cells. The procedure: (§1) In vitro protection assays against either methylmercury chloride (MeHgCl) or tert-butyl hydroperoxide (t-BuOOH) were conducted with the K562-S human leukemia cell line (REF #CRL-3343™) obtained from the American Type Culture Collection (ATCC). Cells were cultured in Gibco RPMI 1640 complete growth medium with L-Glutamine (REF #31800-105), NaHCO3 (2 g/L), 10% FBS (REF #080-750), 2% antibiotic-antimycotic from Gibco (REF #15240-062), pH 7.4, and maintained at 37° C. in a 5% CO2 incubator and protected from light.
(§2) An uptake induction step, in a saline buffer containing 125 mM of NaCl; 25 mM of HEPES-NaOH (pH 7.4); 5.6 mM of D(+)-glucose; 4.8 mM KCl; 1.2 mM of KH2PO4; 1.2 mM of CaCl2; and 1.2 mM of MgSO4, was performed prior to adding selenoneine or ergothioneine to the cell medium.^[22,23] Cells were resuspended in triplicate and pre-incubated in the saline buffer at a density of 2×10^6 cells/mL for 20 minutes at 37° C. under slight agitation. Cells were then incubated during 4 hours in the same buffer and conditions but supplemented with the protective agent of interest—either ergothioneine or selenoneine—in the presence of 0.15 mM of reduced glutathione (GSH). […] Results are expressed as the mean±standard error of the mean of triplicates. […]

For series [2] the following is noted: S at C-5 (ovothiols) versus S at C-2 (ergothioneine); cited from earlier work.
Series [3] has as its system human erythroid K562 cells. In kind it is cell-based. Conditions: for Viability of cells exposed to t-BuOOH: 830 μM t-BuOOH 1 h, protective agent 2.5-150 μM, 4 h pre-incubation, FIG. 3. The protocol:
(§3) Since selenoneine is the analog of the well-known natural antioxidant and cytoprotectant ergothioneine, its capacity as an antioxidant and cytoprotectant was assessed. To that effect, the capacity of selenoneine to protect cells against the cytotoxic effects induced by t-butyl hydroperoxide (t-BuOOH) and methylmercury chloride (MeHgCl) was assessed. Human erythroid K562 cells expressing the ergothioneine transporter (OCTN1) were exposed to the IC50 values of t-BuOOH and MeHgCl respectively, in the presence of increasing concentrations of either selenoneine or ergothioneine. The cell viability was subsequently assessed using the trypan blue viability exclusion test.^[20]
as §1
as §2, with “(GSH). Concentrations of protective agents, either ergothioneine or selenoneine, used for these experiments were 2.5, 5, 25, 50, 100, and 150 μM (FIGS. 3 and 4).” for “(GSH).”

Series [4] relates to human erythroid K562 cells. As to the kind of experiment: Protection against MeHgCl induced cytotoxicity, trypan blue viability exclusion test. The note with it: for Viability of cells exposed to MeHgCl: 5 μM MeHgCl overnight (18h), protective agent 2.5-150 μM, 4 h pre-incubation, FIG. 4. The class given is cell-based. The protocol:
as §3, §1
An uptake induction step, in a saline buffer containing 125 mM of NaCl; 25 mM of HEPES-NaOH (pH 7.4); 5.6 mM of D(+)-glucose; 4.8 mM KCl; 1.2 mM of KH2PO4; 1.2 mM of CaCl2; and 1.2 mM of MgSO4, was performed prior to adding selenoneine or ergothioneine to the cell medium.^[22,23] Cells were resuspended in triplicate and pre-incubated in the saline buffer at a density of 2×10^6 cells/mL for 20 minutes at 37° C. under slight agitation. Cells were then incubated during 4 hours in the same buffer and conditions but supplemented with the protective agent of interest—either ergothioneine or selenoneine—in the presence of 0.15 mM of reduced glutathione (GSH). Concentrations of protective agents, either ergothioneine or selenoneine, used for these experiments were 2.5, 5, 25, 50, 100, and 150 μM (FIGS. 3 and 4). Cells were then washed twice in cold phosphate-buffered saline (PBS) and resuspended in complete RPMI growth medium and divided into two groups at a density of 1×10^6 cells/mL. One group of cells remained untreated (control group) while the other group was treated with either 830 μM of t-BuOOH, or 5 μM of MeHgCl. These concentrations were determined to decrease cell survival by 50% in preliminary experiments (IC50 values). Cells were then incubated at 37° C. under slight agitation over a period of one (1) hour in the case of t-BuOOH, or overnight (18h) for MeHgCl. The cells were then washed twice in cold PBS before being resuspended in complete RPMI growth medium at a density of 5×10^5 cells/mL. The trypan blue viability exclusion test was then conducted using a Hausser Scientific™ Bright-Line™ Phase Hemacytometer. Viable cells (%)=[total number of viable cells per mL of aliquot/total number of cells per mL of aliquot]×100.^[20] Results are expressed as the mean±standard error of the mean of triplicates. These experiments were repeated twice, and similar results were obtained.

Here are results for 4 compounds from patent US20250115557A1, “TOTAL SYNTHESES OF SELENONEINE, ISO-SELENONEINE, AND ISOMERS” (UNIVERSITÉ LAVAL, priority 2022, published 2025).

A word on the IC50: it is the concentration at which inhibition is half-maximal. A high value points to weaker potency in that assay.

SMILES strings stand for the structures. Where two headings read alike, the source gives them in different places.

In series [1] (Homo sapiens), `CC(C)(C)OO` [t-BuOOH, t-butyl hydroperoxide] registered an IC50 of 830 µM.

Take `C[N+](C)(C)[C@@H](Cc1c[nH]c(=S)[nH]1)C(=O)[O-]` [ergothioneine]: the pKa value in series [2] is 8.7. In addition, the “Viability of cells exposed to t-BuOOH” value in series [3] is on record as “increased with increasing concentrations”. For the same compound, the “Viability of cells exposed to MeHgCl” value in series [4] is “increased with increasing concentrations”. The “Cell viability versus control groups at concentrations of 150 μM or higher” value in series [4] (5 μM MeHgCl, K562 cells, protective agent 150 μM or higher) is “did not result in cell viabilities comparable to those of the control groups”.

In series [1], `[CH3][Hg][Cl]` [MeHgCl, methylmercury chloride] yielded an IC50 of 5 µM. In other words, the single-digit micromolar range.

For the compound `C[N+](C)(C)[C@@H](Cc1c[nH]c(=[Se])[nH]1)C(=O)[O-]` [selenoneine, (S)-3-(2-selenoxo-2,3-dihydro-1H-imidazol-4-yl)-2-(trimethylammonio) propanoate], in series [3], the “Viability of cells exposed to t-BuOOH” value is “increased with increasing concentrations”. Moreover, the “Concentration resulting in cell viabilities comparable to those of the control groups” value in series [3] (830 μM t-BuOOH, K562 cells) was no less than 100 µM. Besides, the “Viability of cells exposed to MeHgCl” value in series [4] is reported as “increased with increasing concentrations”. Besides, in series [4] (5 μM MeHgCl, K562 cells), the “Concentration resulting in cell viabilities comparable to those of the control groups” value is no less than 100 µM and the “Protective effect against MeHgCl induced cytotoxicity, comparison” value is “greater protective effect relative to ergothioneine”.
